Results on 2 molecules are retold here after US20100324059A1, “PHARMACEUTICAL COMPOSITIONS USEFUL FOR TREATING HCV” (Gilead Sciences, Inc., priority 2009, published 2010).

Structures are written as SMILES.

The subject of this assay is HCV genotype 1b replicon cells (Huh-luc). The assay is described as follows: Antiviral combination study of Compound 1 and Compound 2 in the HCV 1b replicon system (luciferase readout, MacSynergy II analysis). The class given is cell-based. How it is done:
HCV genotype 1b replicon cells (Huh-luc) were obtained from Reblikon (Mainz, Germany). The replicon in these cells is designated I389luc-ubi-neo/NS3-3′/ET and encodes a selectable resistance marker (neomycin phosphotransferase) as well as the firefly luciferase reporter gene. Huh-luc cells were maintained in Dulbecco's Modified Eagle's Medium (DMEM; GIBCO, Carlsbad, Calif.) supplemented with 10% fetal bovine serum (FBS; Hyclone, Logan, Utah) and 0.5 mg/mL of G-418 (GIBCO). Cells were passaged twice a week and maintained at subconfluent levels.
Replicon cells were seeded in 96-well plates at a density of 5×10^3 cells per well in 100 μL of DMEM culture medium, excluding G-418. Compounds 1 and 2 were serially diluted 1:3 in 100% DMSO (Sigma). These serial dilutions were added to the cells at a 1:200 dilution to achieve a final concentration of 0.5% DMSO in a total volume of 200 μL. Plates were incubated at 37° C. for 3 days, after which culture media were removed and cells were lysed and assayed for luciferase activity using a commercial luciferase assay (Promega, Madison, Wis.). HCV replication levels in drug-treated samples were expressed as a percentage of those in untreated controls (defined as 100%), and data were fit to the logistic dose response equation y=a/(1+(x/b)c) using XLFit4 software (IDBS, Emeryville, Calif.). EC50 values were calculated from the resulting equations as described previously (Delaney, W. E., et al., Antimicrobial Agents Chemotherapy, 45(6):1705-1713 (2001)).
Replicon cells were seeded in 96-well plates at a density of 5×10^3 cells per well in 100 μL of culture medium. Compounds 1 and 2 were serially diluted in 100% DMSO as described above and added in a matrix format to 96-well plates, achieving a defined set of different drug concentrations and ratios in a final volume of 200 μL and a final DMSO concentration of 0.5%. For each individual drug, the EC50 value was selected as the midpoint for the concentration range tested. Cells were incubated for three days and analyzed for luciferase expression as indicated above. For the combination study, two independent experiments were performed in triplicate.
The calculated volumes of surface deviations are expressed in nM^2%. Per Prichard and Shipman, combination effects are defined as: • Highly synergistic if volumes >100 nM^2. • Moderately synergistic if volumes are >50 and ≦100 nM^2. • Additive if volumes are >−50 nM^2 and ≦50 nM^2. • Moderately antagonistic if volumes are >−100 nM^2 and ≦−50 nM^2. • Antagonistic if volumes are ≦−100 nM^2.

Setting [1] is: drug used in combination with Compound 1, 3 days, mean ± standard deviation of two or three independent experiments in triplicate.

In the case of `Fc1ccccc1-c1nc2ccn(Cc3ccc(-c4ccc(C(F)(F)F)cc4C(F)(F)F)nn3)cc-2n1` [Compound 1, 5-({6-[2,4-bis(trifluoromethyl)phenyl]pyridazin-3-yl}methyl)-2-(2-fluorophenyl)-5H-imidazo[4,5-c]pyridine], the interaction entry (Compound 1 with Compound 2) is recorded as “moderate synergistic interaction”.
As to `CCC[C@H](NC(=O)[C@@H]1[C@H]2CCC[C@H]2CN1C(=O)[C@@H](NC(=O)[C@@H](NC(=O)c1cnccn1)C1CCCCC1)C(C)(C)C)C(=O)C(=O)NC1CC1` [Compound 2, (1S,3aR,6aS)—N-[1(S)-[2-(Cyclopropylamino)oxalyl]butyl]-2-[N-(pyrazin-2-ylcarbonyl)-L-cyclohexylglycyl-3-methyl-L-valyl]perhydrocyclopenta[c]pyrrole-1-carboxamide], under setting [1], the “Antagonism Volume” value is 0 ± 0 nM^2 and the “Synergy Volume” value amounted to 79.5 ± 10.5 nM^2. For the same molecule, the interaction result (drug used in combination with Compound 1, classification per Prichard and Shipman) is listed as “Moderate synergy”.
